Experimental findings from US20100081679A1, “DIAMINOPYRIMIDINES AS FUNGICIDES” (Bayer CropScience AG, priority 2007, published 2010) are described below.

Molecules are shown by their SMILES. Marks after values point to notes of the source that are not given here.

The first data set is described as follows: logP determination via retention times, calibrated with unbranched alkan-2-ones. Format: physicochemical. The following applies: HPLC on reversed-phase C 18, EEC Directive 79/831 Annex V.A8; method **: 43° C., 0.1% aqueous phosphoric acid and acetonitrile, linear gradient 10% to 95% acetonitrile.
For `Fc1ccc(Nc2ncc(C(F)(F)F)c(NC3CC3)n2)cc1` [compound 498], the logP is given as 2.96**.

The same data set, now with this note: HPLC on reversed-phase C 18, EEC Directive 79/831 Annex V.A8; method *: 40° C., 0.1% aqueous formic acid and acetonitrile, linear gradient 10% to 95% acetonitrile.
Take `CN(C(=O)C(C)(C)C)c1ccc(Nc2ncc(Cl)c(NCC3CC3)n2)cc1` [compound 525]: the logP is recorded as 2.02*. Take `FC(F)C(F)(F)Oc1cccc(Nc2ncc(Br)c(NCC3CC3)n2)c1` [compound 493]: the logP is recorded as 3.1*. Same read-out and setting: the same measure for `Clc1cnc(Nc2cccc(N3CCCCC3)c2)nc1NC1CC1` [compound 535]: 1.45*; for `O=S(=O)(Cc1ccc(Nc2ncc(Cl)c(NC3CC3)n2)cc1)N1CCCCC1` [compound 537]: 2.17*; for `CN(C)C(=O)Nc1ccc(Nc2ncc(Cl)c(NCC3CC3)n2)cc1` [compound 548]: 1.49*. Regarding `OCc1cccc(Nc2ncc(Cl)c(NCC3CC3)n2)c1` [compound 560], the logP is 1.47*.

Consider `CC(=O)Nc1ccc(Nc2ncc(Cl)c(NCC3CC3)n2)cc1Cl` [compound 505], for which the logP is on record as 1.68*. Same read-out and setting: the same measure for `FC(F)Oc1ccc(Nc2ncc(Cl)c(NCC3CC3)n2)cc1` [compound 538]: 2.25*; for `CNC(=O)c1cccc(Nc2ncc(Cl)c(NCC3CC3)n2)c1` [compound 511]: 1.44*.

The data set is the same for the next values; noted with them: HPLC on reversed-phase C 18, method **: 43° C.; 0.1% aqueous phosphoric acid and acetonitrile; linear gradient 10% to 95% acetonitrile.
As for `COCc1cccc(Nc2ncc(Cl)c(N(C)CC3CC3)n2)c1` [compound 965], the logP is reported as 2.71**.

Staying with this data set, now noted: HPLC on reversed-phase C18, method *: 40° C., 0.1% aqueous formic acid and acetonitrile, linear gradient 10% to 95% acetonitrile.
For the compound `N#Cc1ccccc1Nc1ncc(Cl)c(NC2CC2)n1` [compound 881], the logP is given as 0.85*. `CC(Nc1nc(Nc2ccc(F)cc2)ncc1Cl)C1CC1` (stereo not drawn) [compound 167]: the logP was 2.27*. On to `CCOC(=O)Nc1ccc(Nc2ncc(Br)c(NC3CC3)n2)cc1O` [compound 728], for which the logP is recorded as 1.53*. On the same count and under the same terms, the same measure for `COC(=O)c1ccc(Nc2ncc(Br)c(NC3CC3)n2)cc1` [compound 762]: 2.4*. The same measure, in the same setting: the same measure for `Clc1cc(Cl)cc(Nc2ncc(Br)c(NC3CC3)n2)c1` [compound 749]: 4.43*; for `Cc1ccccc1Nc1ncc(Cl)c(NC2CC2)n1` [compound 938]: 1.61*. On the same count and under the same terms, the same measure for `COCC(C)Nc1ccc(Nc2ncc(Cl)c(NC3CC3)n2)cc1` (stereo not drawn) [Example 110]: 2.03*; for `CC(C)C1COC(=O)N1c1ccc(Nc2ncc(Cl)c(NC3CC3)n2)cc1` (stereo not drawn) [compound 109]: 2.79*. As to `Cc1cc(Nc2ncc(Br)c(NC3CC3)n2)ccc1O` [compound 116], the logP was 1.35*. On the same count and under the same terms, then `O=C1CCCN1c1cccc(Nc2ncc(C(F)F)c(NCC3CC3)n2)c1` [compound 774], with 1.48*; and `Clc1cnc(Nc2cccc(C3CCNCC3)c2)nc1NC1CC1` [compound 727], with 0.88*. As to `CCN(CC)C(=O)c1cccc(Nc2ncc(Cl)c(NC3CC3)n2)c1` [compound 701], the logP is 1.86*. Same read-out and setting: the same measure for `O=C1OCCN1c1ccc(Nc2ncc(Cl)c(NCC3CC3)n2)cc1` [compound 160]: 1.39*; for `CCOc1ccccc1Nc1ncc(Cl)c(NC2CC2)n1` [compound 876]: 2.13*.

Staying with this data set, now noted: HPLC on reversed-phase C18, method *: 40° C.; mobile phase 0.1% aqueous formic acid and acetonitrile; linear gradient 10% to 95% acetonitrile.
On to `COc1ccc(Nc2ncc(Cl)c(NC3CC3)n2)cc1OC` [compound 279], for which the logP is listed as 1.47*. Still for that read-out and setting: the same measure for `O=C1CCCN1c1cc(Nc2ncc(Cl)c(NC3CC3)n2)c(Cl)cc1Cl` [compound 298]: 2.59*; for `CCOC(=O)c1cccc(Nc2ncc(Cl)c(NC3CC3)n2)c1` [compound 292]: 2.26*; for `C#Cc1cccc(Nc2ncc(Br)c(NC3CC3)n2)c1` [compound 340]: 2.41*.

The data set is the same for the next values; noted with them: HPLC on reversed-phase C18 column (EEC Directive 79/831 Annex V.A8); method *: 40° C.; 0.1% aqueous formic acid and acetonitrile; linear gradient 10% to 95% acetonitrile.
Consider `CC(=O)N(C)c1ccc(Nc2ncc(C(F)(F)F)c(NCC3CC3)n2)cc1` [compound 202], for which the logP is 2.13*.

Regarding `O=S(=O)(c1cccc(Nc2ncc(Cl)c(NC3CC3)n2)c1)N1CCCCC1` [compound 246], the logP was 2.8*. `Brc1cnc(Nc2ccccc2)nc1NCC1CC1` [compound 189]: the logP is on record as 1.93*. On the same count and under the same terms, then `COCC(C)Oc1ccc(Nc2ncc(Cl)c(NC3CC3)n2)cc1` (stereo not drawn) [compound 188], with 1.73*; and `COc1cc(Nc2ncc(Cl)c(NC3CC3)n2)ccc1Cl` [compound 256], with 2.53*; and `COc1cc(Nc2ncc(C(F)(F)F)c(NCC3CC3)n2)cc(OC)c1OC` [compound 217], with 2.57*.

Still in this data set, the particulars now being: HPLC reversed-phase C 18, EEC Directive 79/831 Annex V.A8; method *: 40° C., 0.1% aqueous formic acid and acetonitrile, linear gradient 10% to 95% acetonitrile.
Take `CSC(C)c1cccc(Nc2ncc(C(F)(F)F)c(NCC3CC3)n2)c1` (stereo not drawn) [compound 827]: the logP is on record as 3.95*.

The same data set, now with this note: method **: HPLC reversed-phase C 18, 43° C., 0.1% aqueous phosphoric acid and acetonitrile, linear gradient 10% to 95% acetonitrile.
Consider `CCCCNS(=O)(=O)c1ccc(Nc2ncc(Cl)c(NCC3CC3)n2)cc1` [compound 23], for which the logP was 2.75**.

Take `COc1cc(Nc2ncc(Cl)c(NCC3CC3)n2)cc(OC)c1` [compound 11]: the logP is 2.09**.

As to `Cl.Clc1cnc(Nc2ccccc2)nc1NC1CC1` [Example 29], the logP is 1.75**.

The same data set, now with this note: method **: HPLC, reversed-phase C 18, 43° C., mobile phase 0.1% aqueous phosphoric acid and acetonitrile, linear gradient from 10% to 95% acetonitrile.
With `CC(=O)NS(=O)(=O)c1ccc(Nc2ncc(Cl)c(NC3CC3)n2)cc1` [compound 1021], the logP was 1.54**. Turning to `CN(C)C(=O)c1ccc(Nc2ncc(Cl)c(NC3CC3(C)C)n2)cc1` (stereo not drawn) [compound 1030], the logP is 1.86**.

For `Clc1cnc(Nc2cccc(CBr)c2)nc1NC1CC1` [compound 1023], the logP is recorded as 2.31**. Still for that read-out and setting: the same measure for `C=CCOc1cccc(Nc2ncc(C(F)(F)F)c(NC3CC3)n2)c1` [compound 1024]: 3.54**.

Staying with this data set, now noted: method *: HPLC reversed-phase C18, 40° C., 0.1% aqueous formic acid and acetonitrile, linear gradient 10% to 95% acetonitrile.
Take `CC1(C(=O)Nc2ccc(Nc3ncc(Cl)c(NC4CC4)n3)cc2)CC1` [Example 64]: the logP is reported as 1.66*. For the compound `FC(F)(F)Sc1ccc(Nc2ncc(Cl)c(NC3CC3)n2)cc1` [compound 376], the logP is 3.72*.

For the compound `CSc1ccc(Nc2ncc(Cl)c(NC3CC3)n2)cc1` [Example 69], the logP is 2.1*. With `CNC(=O)c1cccc(Nc2ncc(Br)c(NC3CC3)n2)c1` [compound 383], the logP was 1.39*.

Consider `O=C1CCCN1Cc1ccc(Nc2ncc(Cl)c(NC3CC3)n2)cc1` [compound 432], for which the logP is given as 1.36*. Regarding `OCc1cccc(Nc2ncc(Cl)c(NC3CC3)n2)c1` [Example 82], the logP is reported as 1.22*.

The same data set, now with this note: method *: HPLC reversed-phase C 18, temperature 40° C.; mobile phase 0.1% aqueous formic acid and acetonitrile; linear gradient 10% to 95% acetonitrile.
For the compound `CNC(=O)Oc1cccc(Nc2ncc(C#N)c(NC3CC3)n2)c1` [compound 611], the logP was 1.92*. In the case of `CSc1cccc(Nc2ncc(C#N)c(NC3CC3)n2)c1` [compound 609], the logP is 2.92*. For `CC(=O)N(C)c1ccc(Nc2ncc(F)c(NC3CC3)n2)cc1` [compound 582], the logP is 1.23*.

Staying with this data set, now noted: method *: HPLC, reversed-phase C 18, 40° C., mobile phase 0.1% aqueous formic acid and acetonitrile, linear gradient from 10% to 95% acetonitrile.
Take `CN(C)C(=O)c1ccc(Nc2ncc(Cl)c(NC3CC3(C)C)n2)cc1` (stereo not drawn) [compound 1030]: the logP is listed as 1.86*;.

Take `CC(=O)Nc1cc(Nc2ncc(Cl)c(NC3CC3)n2)ccc1C` [compound 982]: the logP is 1.34*.

With `CC(C)Oc1ccc(Nc2ncc(Cl)c(NC3CC3)n2)cc1` [compound 989], the logP is 1.97*.

With `CCN(C)C(=O)c1cccc(Nc2ncc(Cl)c(NC3CC3)n2)c1` [compound 1060], the logP was 1.56*. Regarding `CCN(CC)C(=O)c1cccc(Nc2ncc(C(F)(F)F)c(NC3CC3)n2)c1` [compound 1049], the logP is recorded as 2.71*. The same measure, in the same setting: then `O=C(c1cccc(Nc2ncc(Cl)c(NC3CC3)n2)c1)N1CCSCC1` [compound 1067], with 1.8*; and `Clc1cnc(Nc2cccc(OCCN3CCOCC3)c2)nc1NC1CC1` [compound 1040], with 0.84*.

Staying with this data set, now noted: pH 2.3; read-out: logP (pH2.3).
As to `Clc1ncc(I)c(NC2CC2)n1` [2-chloro-N-cyclopropyl-5-iodopyrimidine-4-amine], the chromatographic logP came to 2.19.
